In patent US20080318891A1, “Antisense oligonucleotides against thymidylate synthase” (priority 1998, published 2008):

System: TS protein
Experiment: TS binding assay ([6-3H]5-FdUMP binding) in HeLa cell lysates
Assay type: cell-based, human
Settings: HeLa cells, different times following transfection
Description: 5-FdUMP binding was measured in cells transfected with ODN 83 (hatched bars) or ODN 32 (open bars) at different times following transfection. (A) Results are plotted as a percent of 5-FdUMP binding in cells transfected with control ODN 32±SE (n=5). The values for ODN 32 (n=5) were normalized to 100% and are shown without error bars. […] Error bars indicate errors calculated according to a Student t-test, and indicate error due to differences in experimental conditions in 5 measurements taken on different days, and differences due to transfection with different ODNs. The asterisks indicate significant differences (p<0.02) determined by using a paired Student t-test.
TS binding assay: Cellular content of TS was assayed by binding of [6-^3H]5-FdUMP. […] The assay was performed using cells that were treated with antisense ODN 83 or the scrambled control ODN 32. Briefly, cells were harvested by scraping into PBS and resuspending the subsequent pellet in 100 mM KH2PO4 (pH 7.4). […] The total protein concentration was determined using Coomassie staining (BioRad reagent) (MI) in order to express results as pmol 5-FdUMP bound per mg total protein. 5-FdUMP binding was assessed in paired lysates from cells transfected with ODN 83 or ODN 32, in separate incubation reactions carried out on different days; however, pairs were always assessed together under the same reaction conditions. […]

ODN 32: scrambled control, randomised sequence of ODN 83, 5′-ATGCGCCAACGGTTCCTAAA-3′ (all phosphorothioate, sugars by position and methylation of C not given here; further chemistry not fully specified) [reference compound]
TS protein levels (inferred by 5-FdUMP binding): no significant effect
